According to PubChem BioAssay (NCI):
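A five-concentration, 48-hour dose response in 96-well plates underlies each endpoint, interpolated linearly between surrounding concentrations. TGI is the concentration that stops growth completely.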

System: OVCAR-8 ovarian
Experiment: DTP human tumour cell line panel, 48 h

Compound	TGI [µM]
CC(C)(C)c1cc(Br)c(O)c(CN(Cc2cc(C(C)(C)C)cc(Br)c2O)C2CCCCC2)c1	28.3
O=Cc1ccc(OCc2cccc(COc3ccc(/C=N\Nc4ccc([N+](=O)[O-])cc4[N+](=O)[O-])cc3)n2)cc1	> 100
O=C(N/N=C/c1ccccc1)c1c(-c2cccnc2)cnc2ccccc12	> 100
Cc1ccc(SCC(CF)OC(C)n2cnc3c(=O)[nH]c(N)nc32)cc1 (stereo unspecified)	> 100
COC(CNC(=O)C(C)NC(=O)CCc1ccccc1)OC (stereo unspecified)	> 100
COc1ccc(C(=C(Cl)c2ccccc2)c2ccc(OC)cc2)cc1	> 100
O=C(NCCCNCCCNC(=O)c1cc(-c2ccccc2)nc2ccccc12)c1cc(-c2ccccc2)nc2ccccc12	> 100
NC(Cc1ccccc1)C(=O)N[C@H]1c2ccsc2/C(=N/O)[C@H]1O (stereo partly specified)	> 100

System: PC-3 prostate
Experiment: DTP human tumour cell line panel, 48 h

Compound	TGI [µM]
CC(C)(C)c1cc(Br)c(O)c(CN(Cc2cc(C(C)(C)C)cc(Br)c2O)C2CCCCC2)c1	28.1
O=Cc1ccc(OCc2cccc(COc3ccc(/C=N\Nc4ccc([N+](=O)[O-])cc4[N+](=O)[O-])cc3)n2)cc1	> 100
O=C(N/N=C/c1ccccc1)c1c(-c2cccnc2)cnc2ccccc12	> 100
Cc1ccc(SCC(CF)OC(C)n2cnc3c(=O)[nH]c(N)nc32)cc1 (stereo unspecified)	> 100
COC(CNC(=O)C(C)NC(=O)CCc1ccccc1)OC (stereo unspecified)	> 100
COc1ccc(C(=C(Cl)c2ccccc2)c2ccc(OC)cc2)cc1	> 100
O=C(NCCCNCCCNC(=O)c1cc(-c2ccccc2)nc2ccccc12)c1cc(-c2ccccc2)nc2ccccc12	2.99
NC(Cc1ccccc1)C(=O)N[C@H]1c2ccsc2/C(=N/O)[C@H]1O (stereo partly specified)	> 100

System: RPMI-8226 leukemia
Experiment: DTP human tumour cell line panel, 48 h

Compound	TGI [µM]
CC(C)(C)c1cc(Br)c(O)c(CN(Cc2cc(C(C)(C)C)cc(Br)c2O)C2CCCCC2)c1	27.9
O=Cc1ccc(OCc2cccc(COc3ccc(/C=N\Nc4ccc([N+](=O)[O-])cc4[N+](=O)[O-])cc3)n2)cc1	> 100
O=C(N/N=C/c1ccccc1)c1c(-c2cccnc2)cnc2ccccc12	> 100
Cc1ccc(SCC(CF)OC(C)n2cnc3c(=O)[nH]c(N)nc32)cc1 (stereo unspecified)	> 100
COC(CNC(=O)C(C)NC(=O)CCc1ccccc1)OC (stereo unspecified)	> 100
COc1ccc(C(=C(Cl)c2ccccc2)c2ccc(OC)cc2)cc1	> 100
O=C(NCCCNCCCNC(=O)c1cc(-c2ccccc2)nc2ccccc12)c1cc(-c2ccccc2)nc2ccccc12	4.78

System: RXF 393 renal
Experiment: DTP human tumour cell line panel, 48 h

Compound	TGI [µM]
CC(C)(C)c1cc(Br)c(O)c(CN(Cc2cc(C(C)(C)C)cc(Br)c2O)C2CCCCC2)c1	22.6
O=Cc1ccc(OCc2cccc(COc3ccc(/C=N\Nc4ccc([N+](=O)[O-])cc4[N+](=O)[O-])cc3)n2)cc1	> 100
O=C(N/N=C/c1ccccc1)c1c(-c2cccnc2)cnc2ccccc12	> 100
COC(CNC(=O)C(C)NC(=O)CCc1ccccc1)OC (stereo unspecified)	> 100
COc1ccc(C(=C(Cl)c2ccccc2)c2ccc(OC)cc2)cc1	> 100
NC(Cc1ccccc1)C(=O)N[C@H]1c2ccsc2/C(=N/O)[C@H]1O (stereo partly specified)	> 100

System: SF-268 CNS
Experiment: DTP human tumour cell line panel, 48 h

Compound	TGI [µM]
CC(C)(C)c1cc(Br)c(O)c(CN(Cc2cc(C(C)(C)C)cc(Br)c2O)C2CCCCC2)c1	26.4
O=Cc1ccc(OCc2cccc(COc3ccc(/C=N\Nc4ccc([N+](=O)[O-])cc4[N+](=O)[O-])cc3)n2)cc1	> 100
O=C(N/N=C/c1ccccc1)c1c(-c2cccnc2)cnc2ccccc12	> 100
Cc1ccc(SCC(CF)OC(C)n2cnc3c(=O)[nH]c(N)nc32)cc1 (stereo unspecified)	> 100
COC(CNC(=O)C(C)NC(=O)CCc1ccccc1)OC (stereo unspecified)	> 100
COc1ccc(C(=C(Cl)c2ccccc2)c2ccc(OC)cc2)cc1	> 100

System: SF-295 CNS
Experiment: DTP human tumour cell line panel, 48 h

Compound	TGI [µM]
CC(C)(C)c1cc(Br)c(O)c(CN(Cc2cc(C(C)(C)C)cc(Br)c2O)C2CCCCC2)c1	25.3
O=Cc1ccc(OCc2cccc(COc3ccc(/C=N\Nc4ccc([N+](=O)[O-])cc4[N+](=O)[O-])cc3)n2)cc1	> 100
O=C(N/N=C/c1ccccc1)c1c(-c2cccnc2)cnc2ccccc12	> 100
Cc1ccc(SCC(CF)OC(C)n2cnc3c(=O)[nH]c(N)nc32)cc1 (stereo unspecified)	> 100
COC(CNC(=O)C(C)NC(=O)CCc1ccccc1)OC (stereo unspecified)	> 100
COc1ccc(C(=C(Cl)c2ccccc2)c2ccc(OC)cc2)cc1	> 100
NC(Cc1ccccc1)C(=O)N[C@H]1c2ccsc2/C(=N/O)[C@H]1O (stereo partly specified)	> 100

System: SF-539 CNS
Experiment: DTP human tumour cell line panel, 48 h

Compound	TGI [µM]
O=C(N/N=C/c1ccccc1)c1c(-c2cccnc2)cnc2ccccc12	> 100
Cc1ccc(SCC(CF)OC(C)n2cnc3c(=O)[nH]c(N)nc32)cc1 (stereo unspecified)	> 100
COC(CNC(=O)C(C)NC(=O)CCc1ccccc1)OC (stereo unspecified)	> 100
COc1ccc(C(=C(Cl)c2ccccc2)c2ccc(OC)cc2)cc1	> 100
O=C(NCCCNCCCNC(=O)c1cc(-c2ccccc2)nc2ccccc12)c1cc(-c2ccccc2)nc2ccccc12	> 100
NC(Cc1ccccc1)C(=O)N[C@H]1c2ccsc2/C(=N/O)[C@H]1O (stereo partly specified)	> 100

System: SK-MEL-2 melanoma
Experiment: DTP human tumour cell line panel, 48 h

Compound	TGI [µM]
CC(C)(C)c1cc(Br)c(O)c(CN(Cc2cc(C(C)(C)C)cc(Br)c2O)C2CCCCC2)c1	25.8
O=Cc1ccc(OCc2cccc(COc3ccc(/C=N\Nc4ccc([N+](=O)[O-])cc4[N+](=O)[O-])cc3)n2)cc1	> 100
O=C(N/N=C/c1ccccc1)c1c(-c2cccnc2)cnc2ccccc12	> 100
